“And” between values parts separate entries of the source, which are not always exact repeats. Equal entries are not always repeated.
Experiments:
platelets = experiment: Platelet aggregation (aggregometer); type: cell-based; conditions: compound 5 about 30 μM; compound 22 10 μM and 30 μM
Text: ADP was used as a positive control for platelet aggregation.

FIXa = FIXa (Homo sapiens, UniProt P00740); experiment: FXa generation assay with human FIXa; type: biochemical; parameters: purchased Haematologic Technologies; conditions: for Vmax: class symbols
Text: FXa generation was utilized to assess the capability of the compounds of the present disclosure to enhance the catalytic activities of FIXa and/or FVIIa.
To measure the catalytic activity of FIXa, FIXa was mixed with FX and phospholipids in the presence of calcium chloride. Under these conditions FIXa cleaves the zymogen FX into the active form FXa.
The generation of FXa is monitored by the change in absorbance of the reaction at 405 nm due to the presence of a cleavable FXa chromogenic substrate (S-2765; Z-D-Arg-Gly-Arg-pNA; cleavage of p-nitroaniline). […] The kit contains all the FXa generation components, however, FIXa and FX obtained from this kit are from a bovine origin and were replaced with purified human FIXa or human FVIIa and human FX (Haematologic Technologies).
The assay was also modified to enhance the screening throughput. Instead of the sequential addition, all the assay components were mixed and added simultaneously to the purified compound to be assayed. A 125 μl reaction mix of the assay components was prepared in the buffer supplied by the manufacturer (50 mM Tris 7.3, and 1% BSA). […] The reaction mix (125 ul) was then added to 25 ul of compound diluted in water in a Costar-3651 flat bottom 96-well plate. […] The absorbance was monitored over a period of 1 hour at 405 nm using a plate reader (Synergy 2, Biotek).
The 405 nm absorbance data were then analyzed to obtain the slope of the first derivative which reflects the rate of change in absorbance. The first derivative slope data for each compound concentration were plotted against the compound concentration and fitted to a four-parameter equation to obtain the EC50 and Vmax values for each compound tested.

[1] = tested on: FVIII deficient human plasma; experiment: Thrombin generation assay (TGA) in FVIII-deficient plasma; type: biochemical; parameters: key to Thrombin Above Baseline (nM): 1-10 nM (1) or 1-29 nM (2) (+); 11-20 nM (1) or 30-59 nM (2) (++); 21-30 nM (1) or 60-90 nM (2) (+++); >30 nM (1) or >90 nM (2) (++++); At or about baseline (−)
[2] = tested on: 10% FVIII-deficient human plasma; experiment: Modified activated partial thromboplastin time (aPTT*) assay; type: biochemical
Protocol: For the activated Partial Thromboplastin Time (aPTT) assay peptides to be tested were first diluted in 10% FVIII-deficient human plasma. For the aPTT* the peptides were diluted in 10% FVIII-deficient human plasma that contained traces of hFIXa (anywhere between 0 and 8.8 nM hFIXa depending on the assay) in Tris/NaCl/BSA buffer. The peptides were incubated for 10 minutes at room temperature and then assayed for clotting on a Sysmex instrument that recorded the clotting time observed for each sample. The times were compared to those of a standard curve derived from standards with known FVIII activity (U/mL) in order to determine the clotting outcome.

[3] = tested on: FVIII deficient human plasma; experiment: Rotational thromboelastometry (ROTEM) in FVIII-deficient human plasma; type: biochemical; conditions: human HemA plasma (HRF)
Protocol: Compounds of the present disclosure were tested by rotational thromboelastometry to evaluate coagulation parameters such as clotting time (CT), α-angle, clot formation time (CFT), maximum clot firmness (MCF). Briefly, lyophilized and citrated FVIII deficient human plasma (Siemens) was reconstituted with 1 mL of distilled water, allowed to stand for 20 min at RT and mixed well before use. Alternatively, an aliquot of citrated (non-lyophilized) FVIII deficient human plasma (HRF, George King, Precision Biologics, or real-time donors) was thawed for 10 min in a 37° C. water bath and when needed centrifuged at 2800 g for 5 min at 25° C. FVIII deficient plasma was spiked with lyophilized platelets (Helena Laboratories, final concentration 0.5×10^8 cells/ml) and compounds, FVIII, or both compound and FVIII. Dilutions of compounds of the present disclosure and controls, such as FVIII, were prepared in PBS (—Ca, —Mg). Next, 300 μl of the spiked plasma was transferred to a ROTEM cup already containing 20 μl of StarTEM (concentrated calcium chloride solution) and 20 μl of lipidated TF (American Diagnostica, final concentration 10 fM) or Kaolin (Sigma-Aldrich, final concentration 0.4 μg/ml) and recording was initiated. The cups were maintained at 37° C. during the testing.

[4] = tested on: human HemA (severe) whole blood; experiment: ROTEM in human HemA whole blood; type: biochemical; conditions: 30 min pre-incubation
Protocol: Briefly, lyophilized and citrated FVIII deficient human plasma (Siemens) was reconstituted with 1 mL of distilled water, allowed to stand for 20 min at RT and mixed well before use. Alternatively, an aliquot of citrated (non-lyophilized) FVIII deficient human plasma (HRF, George King, Precision Biologics, or real-time donors) was thawed for 10 min in a 37° C. water bath and when needed centrifuged at 2800 g for 5 min at 25° C. FVIII deficient plasma was spiked with lyophilized platelets (Helena Laboratories, final concentration 0.5×10^8 cells/ml) and compounds, FVIII, or both compound and FVIII. Dilutions of compounds of the present disclosure and controls, such as FVIII, were prepared in PBS (—Ca, —Mg). Next, 300 μl of the spiked plasma was transferred to a ROTEM cup already containing 20 μl of StarTEM (concentrated calcium chloride solution) and 20 μl of lipidated TF (American Diagnostica, final concentration 10 fM) or Kaolin (Sigma-Aldrich, final concentration 0.4 μg/ml) and recording was initiated. The cups were maintained at 37° C. during the testing.
The only difference from the above described plasma Rotem is that the experiment is done in human HemA (severe) whole blood. No platelets were added as they are already present the in whole blood.

[5] = FXa generation assay, 10 nM hFIXa, 100 nM hFX
[6] = Precision Biologics FVIII-deficient plasma (2), first Baseline (2) series, 2.5 μM
[7] = Precision Biologics FVIII-deficient plasma (2), first Baseline (2) series, 5 μM
[8] = Precision Biologics FVIII-deficient plasma (2), first Baseline (2) series, 10 μM
[9] = Precision Biologics FVIII-deficient plasma (2), second Baseline (2) series, 2.5 μM
[10] = Precision Biologics FVIII-deficient plasma (2), second Baseline (2) series, 5 μM
[11] = Precision Biologics FVIII-deficient plasma (2), second Baseline (2) series, 10 μM
[12] = Precision Biologics FVIII-deficient plasma (2), second Baseline (2) series, 20 μM

FIXa, sequence (P00740 47-191 limits assumed): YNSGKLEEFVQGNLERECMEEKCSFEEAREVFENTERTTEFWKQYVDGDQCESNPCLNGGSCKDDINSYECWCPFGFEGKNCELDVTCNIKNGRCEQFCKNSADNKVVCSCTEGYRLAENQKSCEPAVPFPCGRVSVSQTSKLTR
FIXa, sequence (P00740 227-461 limits assumed): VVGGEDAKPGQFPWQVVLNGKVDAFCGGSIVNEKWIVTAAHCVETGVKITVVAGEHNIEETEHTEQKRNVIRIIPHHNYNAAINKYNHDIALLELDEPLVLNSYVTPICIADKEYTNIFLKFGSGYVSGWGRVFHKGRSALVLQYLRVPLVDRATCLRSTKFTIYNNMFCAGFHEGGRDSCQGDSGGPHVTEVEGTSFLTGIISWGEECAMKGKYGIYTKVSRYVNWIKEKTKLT

## PRIRTVGPGSRSASGKSTCLASYCWLFWTGIA [Compound 22]
platelets
  induction of platelet aggregation: did also not induce platelet aggregation

## PRIRTVSPGSRSASGKLTCLASYCWLFWTGIA
FIXa; [5]
  Vmax: (++++) ((++++)>3)
[1]; [6]
  Thrombin Above Baseline (nM): ++ (11-20 nM (1) or 30-59 nM (2) (++))
[1]; [7]
  Thrombin Above Baseline (nM): +++ (21-30 nM (1) or 60-90 nM (2) (+++))
[1]; [8]
  Thrombin Above Baseline (nM): ++++ (>30 nM (1) or >90 nM (2) (++++))

## PRSRTVGPGSRSASGKLTCLASYCWLFWTGIA
FIXa; [5]
  Vmax: (++++) ((++++)>3)
[1]; [6]
  Thrombin Above Baseline (nM): ++ (11-20 nM (1) or 30-59 nM (2) (++))
[1]; [7]
  Thrombin Above Baseline (nM): +++ (21-30 nM (1) or 60-90 nM (2) (+++))
[1]; [8]
  Thrombin Above Baseline (nM): +++ (21-30 nM (1) or 60-90 nM (2) (+++))

## SRIRTVGPGSRSASGKLTCLASYCWLFWTGIA
FIXa; [5]
  Vmax: (++++) ((++++)>3)
[1]; [6]
  Thrombin Above Baseline (nM): ++ (11-20 nM (1) or 30-59 nM (2) (++))
[1]; [7]
  Thrombin Above Baseline (nM): +++ (21-30 nM (1) or 60-90 nM (2) (+++))
[1]; [8]
  Thrombin Above Baseline (nM): ++++ (>30 nM (1) or >90 nM (2) (++++))

## k-MeLeu-TCLASYCWLF [Compound 2]
FIXa; [5]
  Vmax: (++++) ((++++)>3)
FIXa; PL: No
  Vmax (mOD/min min): 3.05 mOD/min min
FIXa; PL: Yes
  Vmax (mOD/min min): 4.22 mOD/min min
[2]; aPTT* with FIXa, 5 μM
  Clotting time: 50.3 s
  Clotting time, sec: 51.1; sec
[2]; aPTT* with FIXa, 10 μM
  Clotting time: 42.2 s
  Clotting time, sec: 42.9; sec
[2]; aPTT* with FIXa, 20 μM
  Clotting time: 42.3 s
  Clotting time, sec: 42.4; sec
[2]; aPTT*, FIXa 1 nM
  Clotting time: 91.4 s
  Clotting time, sec: 86.8; sec
[2]; aPTT*, FIXa 2 nM
  Clotting time: 49.6 s
  Clotting time, sec: 51.3; sec
[2]; aPTT*, FIXa 4 nM
  Clotting time: 42.7 s
  Clotting time, sec: 46.0; sec
[2]; aPTT*, FIXa 8 nM
  Clotting time: 37.1 s
  Clotting time, sec: 34.4; sec

## PSIRTVGPGSRSASGKLTCLASYCWLFWTGIA
FIXa; [5]
  Vmax: (++++) ((++++)>3)
[1]; [6]
  Thrombin Above Baseline (nM): + (1-10 nM (1) or 1-29 nM (2) (+))
[1]; [7]
  Thrombin Above Baseline (nM): + (1-10 nM (1) or 1-29 nM (2) (+))
[1]; [8]
  Thrombin Above Baseline (nM): + (1-10 nM (1) or 1-29 nM (2) (+))

## k-MeLeu-TCLASYCWLF
FIXa; FXa generation assay using human FIXa
  Vmax: (++++) ((++++)>3)
FIXa; FXa generation assay, 10 nM hFIXa, 100 nM hFX, listed as SEQ ID NO: 232
  Vmax: (+++) ((+++)>2)
[1]; HRF FVIII-deficient plasma (1), 2.5 μM
  Thrombin Above Baseline (nM): + (1-10 nM (1) or 1-29 nM (2) (+))
[1]; HRF FVIII-deficient plasma (1), 5 μM
  Thrombin Above Baseline (nM): −
[1]; HRF FVIII-deficient plasma (1), 10 μM
  Thrombin Above Baseline (nM): −
[1]; HRF FVIII-deficient plasma (1), 20 μM
  Thrombin Above Baseline (nM): + (1-10 nM (1) or 1-29 nM (2) (+))

## PRIRTSGPGSRSASGKLTCLASYCWLFWTGIA
FIXa; [5]
  Vmax: (++++) ((++++)>3)
[1]; [6]
  Thrombin Above Baseline (nM): + (1-10 nM (1) or 1-29 nM (2) (+))
[1]; [7]
  Thrombin Above Baseline (nM): ++ (11-20 nM (1) or 30-59 nM (2) (++))
[1]; [8]
  Thrombin Above Baseline (nM): ++ (11-20 nM (1) or 30-59 nM (2) (++))

## SRIRTVGPGSRSASGKSTCLASYCWLFWTGIA
FIXa; [5]
  Vmax: (++++) ((++++)>3)
[1]; [9]
  Thrombin Above Baseline (nM): +++ (21-30 nM (1) or 60-90 nM (2) (+++))
[1]; [10]
  Thrombin Above Baseline (nM): ++++ (>30 nM (1) or >90 nM (2) (++++))
[1]; [11]
  Thrombin Above Baseline (nM): ++++ (>30 nM (1) or >90 nM (2) (++++))

## PRIrTVGPGSrSASGKLTCLASYCWLFWTGIA [Compound 23]
FIXa; [5]
  Vmax: (++++) ((++++)>3)
[3]; 2.5 μM
  Clotting time, sec (avg.): 983 s
  α-angle, degrees (avg.): 13 degrees
[3]; 5 μM
  Clotting time, sec (avg.): 673 s
  α-angle, degrees (avg.): 22 degrees
[3]; 10 μM
  Clotting time, sec (avg.): 486 s
  α-angle, degrees (avg.): 32 degrees
[3]; 20 μM
  Clotting time, sec (avg.): 472 s
  α-angle, degrees (avg.): 39 degrees

## PRSRTVGPGSRSASGKSTCLASYCWLFWTGIA
FIXa; [5]
  Vmax: (++++) ((++++)>3)
[1]; [9]
  Thrombin Above Baseline (nM): ++ (11-20 nM (1) or 30-59 nM (2) (++))
[1]; [10]
  Thrombin Above Baseline (nM): +++ (21-30 nM (1) or 60-90 nM (2) (+++))
[1]; [11]
  Thrombin Above Baseline (nM): ++++ (>30 nM (1) or >90 nM (2) (++++))
[1]; [12]
  Thrombin Above Baseline (nM): ++++ (>30 nM (1) or >90 nM (2) (++++))

## PRIRTVGPGSRSASGKLTCLASYCWLFWTGIA [Compound 21]
[4]; 2.5 μM
  Clotting time, sec: 1,057 sec and 1,090 sec
  α-angle, degrees: 32 degrees
[4]; 5 μM
  Clotting time: 930 s
  α-angle, degrees: 32 degrees
[4]; 10 μM
  Clotting time: 748 s and 703 s
  α-angle, degrees: 44 degrees and 52 degrees
[4]; 20 μM
  Clotting time: 952 s and 625 s
  α-angle, degrees: 42 degrees and 43 degrees
FIXa; [5]
  Vmax: (++++) ((++++)>3)

## PRISTVGPGSRSASGKLTCLASYCWLFWTGIA
FIXa; [5]
  Vmax: (++++) ((++++)>3)
[1]; [6]
  Thrombin Above Baseline (nM): + (1-10 nM (1) or 1-29 nM (2) (+))
[1]; [7]
  Thrombin Above Baseline (nM): + (1-10 nM (1) or 1-29 nM (2) (+))
[1]; [8]
  Thrombin Above Baseline (nM): + (1-10 nM (1) or 1-29 nM (2) (+))

## PRIRTVGPGSRSASGKSTCLASYCWLFWTGIA
FIXa; [5]
  Vmax: (++++) ((++++)>3)
[1]; [6]
  Thrombin Above Baseline (nM): + (1-10 nM (1) or 1-29 nM (2) (+))
[1]; [7]
  Thrombin Above Baseline (nM): ++ (11-20 nM (1) or 30-59 nM (2) (++))
[1]; [8]
  Thrombin Above Baseline (nM): +++ (21-30 nM (1) or 60-90 nM (2) (+++))
[1]; [9]
  Thrombin Above Baseline (nM): + (1-10 nM (1) or 1-29 nM (2) (+))
[1]; [10]
  Thrombin Above Baseline (nM): +++ (21-30 nM (1) or 60-90 nM (2) (+++))
[1]; [11]
  Thrombin Above Baseline (nM): ++++ (>30 nM (1) or >90 nM (2) (++++))
[1]; [12]
  Thrombin Above Baseline (nM): ++++ (>30 nM (1) or >90 nM (2) (++++))
